Patent US4250170A, “Antibacterial agents Bu-2349A and B and method of using same” (Bristol-Myers Company, priority 1979, dated 1981)
Converted amounts (≈) assume the structure as drawn. Like-named read-outs stand apart in the source and are kept apart here.

Tests used:
[1] = test system: Staphylococcus aureus 209P (Sa-1); assay: MIC, two-fold agar dilution; type: cell-based; conditions: 18 h
Experimental: (§1) The minimum inhibitory concentrations (MIC) of Bu-2349A and B were determined against a wide variety of bacteria by the two-fold agar dilution method. Mueller-Hinton agar medium was generally used for the determination of bacterial MIC except for species of Streptococcus, Neisseria and Hemophilus for which Gonococcus agar medium (GC agar, Nissui Co., Tokyo) was used. Gifu anaerobe agar medium (GAM agar, Eiken Co., Tokyo) was used for anaerobic bacteria. The MIC's were determined after overnight incubation at 37° C. with an initial inoculum equivalent to a 10^-4 dilution of an 18-hour culture for the aerobic and anaerobic bacteria, except for Streptococcus, Neisseria and Hemophilus for which a 10^-2 dilution was used.
(§2) The influence of inoculum size on MIC was tested on Mueller-Hinton agar using an inoculum of […], 10^-2 or 10^-4 dilution of the overnight culture of test organisms.
(§3) The effect of media pH on the MIC's of Bu-2349A was determined at three pH levels (6, 7 and 8) using Mueller-Hinton agar.
(§4) The media effect on the MIC's of Bu-2349A was tested using four kinds of assay media: Mueller-Hinton agar (MHA), nutrient agar (NA), heart infusion agar (HIA) and brain heart infusion agar (BHIA). The pH was adjusted at 7 and a 10^-4 dilution of overnight culture was used for the inoculum.

[2] = test system: Bacillus subtilis PCI 219 (Bs-1); assay: MIC, two-fold agar dilution; type: cell-based; conditions: 18 h
Experimental: as §1, §2, §3, §4

[3] = test system: Pseudomonas aeruginosa (Pa-3); assay: MIC, two-fold agar dilution; type: cell-based; conditions: 18 h
Experimental: as §1, §2, §3, §4

[4] = test system: Klebsiella pneumoniae (Kp-2); assay: MIC, two-fold agar dilution; type: cell-based; conditions: 18 h
Experimental: as §1, §2, §3, §4

[5] = test system: Escherichia coli ML-1630 (Ec-5), APH(3')-1; assay: MIC, two-fold agar dilution; type: cell-based; conditions: 18 h
Experimental: as §1, §2, §3, §4

[6] = test system: Mycobacterium phlei D88 (Mp-1); assay: MIC, two-fold agar dilution; type: cell-based; conditions: Mycolicibacterium phlei, 18 h; Table 3; Mueller-Hinton agar, 10^-4 dilution
[7] = test system: Proteus stuartii (Ps-2), AAC(2'); assay: MIC, two-fold agar dilution; type: cell-based; conditions: 18 h; Table 3; Mueller-Hinton agar, 10^-4 dilution; enzyme AAC(2')
acute LD50 in mice = conditions: mouse, in vivo
[8] = test system: Streptococcus viridans (Sv-1); assay: MIC, two-fold agar dilution; type: cell-based; conditions: 18 h, Table 3, GC agar, 10^-2 dilution
[9] = test system: Neisseria meningitidis (Nm-1); assay: MIC, two-fold agar dilution; type: cell-based; conditions: 18 h, Table 3, GC agar, 10^-2 dilution
[10] = test system: Bacteroides fragilis (Bf-3); assay: MIC against anaerobic bacteria; type: cell-based; conditions: 18 h, Table 4, GAM Medium, pH 7
P. vulgaris (Pv-3) = assay: MIC, agar dilution; type: cell-based; conditions: Proteus vulgaris, 18 h
Experimental: as §1, §2, §3, §4

S. aureus (Sa-63) = assay: MIC, agar dilution; type: cell-based; conditions: Staphylococcus aureus, 18 h
Experimental: as §1, §2, §3, §4

anaerobic organisms = assay: in vitro activity against anaerobic bacteria, overall statement; type: cell-based; conditions: most of the anaerobic organisms tested
[11] = test system: Streptococcus pyogenes (Sp-3); assay: MIC, two-fold agar dilution; type: cell-based; conditions: 18 h, Table 3, GC agar, 10^-2 dilution
[12] = test system: S. aureus, E. coli, K. pneumoniae, P. vulgaris and P. mirabilis; assay: experimental infections in mice, overall statement; type: in vivo; conditions: im
Experimental: The in vivo antibacterial activity of Bu-2349A was determined by experimental infections in mice. Mice were challenged via the intraperitoneal route with a 100 X LD50 dose of the pathogens in a 5% suspension of hog gastric mucin (American Laboratories, Omaha, Neb.). Bu-2349A was administered by the intramuscular route immediately after the bacterial challenge.

[13] = Table 3, Mueller-Hinton agar, 10^-4 dilution
[14] = pH 6, Table 6, Mueller-Hinton Agar, 10^-4 dilution, pH 6
[15] = pH 7, Table 5, Mueller-Hinton Agar, pH 7, inoculum 10^0 dil.
[16] = pH 7, Table 5, Mueller-Hinton Agar, pH 7, inoculum 10^-2 dil.
[17] = pH 7, Table 5, Mueller-Hinton Agar, pH 7, inoculum 10^-4 dil.
[18] = pH 7, Table 6, Mueller-Hinton Agar, 10^-4 dilution, pH 7
[19] = pH 7, Table 7, pH 7, 10^-4 dilution, BHIA
[20] = pH 7, Table 7, pH 7, 10^-4 dilution, HIA
[21] = pH 7, Table 7, pH 7, 10^-4 dilution, MHA
[22] = pH 7, Table 7, pH 7, 10^-4 dilution, NA
[23] = pH 8, Table 6, Mueller-Hinton Agar, 10^-4 dilution, pH 8
[24] = pH 6, Table 6, Mueller-Hinton Agar, 10^-4 dilution, pH 6, read-out: MIC
[25] = pH 7, Table 5, Mueller-Hinton Agar, pH 7, inoculum 10^-2 dil., read-out: MIC
[26] = pH 7, Table 5, Mueller-Hinton Agar, pH 7, inoculum 10^-4 dil., read-out: MIC
[27] = pH 7, Table 6, Mueller-Hinton Agar, 10^-4 dilution, pH 7, read-out: MIC
[28] = pH 7, Table 7, pH 7, 10^-4 dilution, BHIA, read-out: MIC
[29] = pH 7, Table 7, pH 7, 10^-4 dilution, HIA, read-out: MIC
[30] = pH 7, Table 7, pH 7, 10^-4 dilution, MHA, read-out: MIC
[31] = pH 7, Table 7, pH 7, 10^-4 dilution, NA, read-out: MIC
[32] = pH 8, Table 6, Mueller-Hinton Agar, 10^-4 dilution, pH 8, read-out: MIC

SMILES: C=C1OC(OC2C(CO)OC(Oc3ccc(C(=O)NCCCNCCCCNCCCCN)cc3)C2O)C(O)C(OC2OC(CO)C(OC3OC(C)C(N)C(O)C3NC(=O)C(C)N)C(O)C2O)C1O (stereo not shown) [Bu-2349A]
- MIC [1, 13]: 3.1 µg/mL (≈ 3.13 µM)
- MIC [1, 14]: 50 µg/mL (≈ 50.5 µM)
- MIC [1, 15]: 6.3 µg/mL (≈ 6.36 µM)
- MIC [1, 16]: 3.1 µg/mL (≈ 3.13 µM)
- MIC [1, 17]: 3.1 µg/mL (≈ 3.13 µM)
- MIC [1, 18]: 3.1 µg/mL (≈ 3.13 µM)
- MIC [1, 19]: 3.1 µg/mL (≈ 3.13 µM)
- MIC [1, 20]: 1.6 µg/mL (≈ 1.62 µM)
- MIC [1, 21]: 3.1 µg/mL (≈ 3.13 µM)
- MIC [1, 22]: 1.6 µg/mL (≈ 1.62 µM)
- MIC [1, 23]: 1.6 µg/mL (≈ 1.62 µM)
- MIC [2, 13]: 1.6 µg/mL (≈ 1.62 µM)
- MIC [2, 14]: 50 µg/mL (≈ 50.5 µM)
- MIC [2, 15]: 6.3 µg/mL (≈ 6.36 µM)
- MIC [2, 16]: 3.1 µg/mL (≈ 3.13 µM)
- MIC [2, 17]: 3.1 µg/mL (≈ 3.13 µM)
- MIC [2, 18]: 3.1 µg/mL (≈ 3.13 µM)
- MIC [2, 19]: 6.3 µg/mL (≈ 6.36 µM)
- MIC [2, 20]: 1.6 µg/mL (≈ 1.62 µM)
- MIC [2, 21]: 3.1 µg/mL (≈ 3.13 µM)
- MIC [2, 22]: 0.8 µg/mL (≈ 0.808 µM)
- MIC [2, 23]: 1.6 µg/mL (≈ 1.62 µM)
- MIC [3, 13]: 25 µg/mL (≈ 25.2 µM)
- MIC [3, 14]: > 50 µg/mL
- MIC [3, 15]: > 50 µg/mL
- MIC [3, 16]: 50 µg/mL (≈ 50.5 µM)
- MIC [3, 17]: 25 µg/mL (≈ 25.2 µM)
- MIC [3, 18]: 25 µg/mL (≈ 25.2 µM)
- MIC [3, 19]: 25 µg/mL (≈ 25.2 µM)
- MIC [3, 20]: 12.5 µg/mL (≈ 12.6 µM)
- MIC [3, 21]: 50 µg/mL (≈ 50.5 µM)
- MIC [3, 22]: 6.3 µg/mL (≈ 6.36 µM)
- MIC [3, 23]: 12.5 µg/mL (≈ 12.6 µM)
- MIC ([4]; Table 3, Mueller-Hinton agar, 10^-4 dilution, read-out: MIC): 3.1 µg/mL (≈ 3.13 µM)
- MIC [4, 24]: 50 µg/mL (≈ 50.5 µM)
- MIC ([4]; pH 7): 12.5 µg/mL (≈ 12.6 µM)
- MIC [4, 25]: 6.3 µg/mL (≈ 6.36 µM)
- MIC [4, 26]: 3.1 µg/mL (≈ 3.13 µM)
- MIC [4, 27]: 3.1 µg/mL (≈ 3.13 µM)
- MIC [4, 28]: 3.1 µg/mL (≈ 3.13 µM)
- MIC [4, 29]: 1.6 µg/mL (≈ 1.62 µM)
- MIC [4, 30]: 3.1 µg/mL (≈ 3.13 µM)
- MIC [4, 31]: 1.6 µg/mL (≈ 1.62 µM)
- MIC [4, 32]: 3.1 µg/mL (≈ 3.13 µM)
- MIC ([5]; Table 3, Mueller-Hinton agar, 10^-4 dilution, enzyme APH(3')-1): 1.6 µg/mL (≈ 1.62 µM)
- MIC [5, 14]: 50 µg/mL (≈ 50.5 µM)
- MIC [5, 15]: 6.3 µg/mL (≈ 6.36 µM)
- MIC [5, 16]: 3.1 µg/mL (≈ 3.13 µM)
- MIC [5, 17]: 3.1 µg/mL (≈ 3.13 µM)
- MIC [5, 18]: 3.1 µg/mL (≈ 3.13 µM)
- MIC [5, 19]: 3.1 µg/mL (≈ 3.13 µM)
- MIC [5, 20]: 1.6 µg/mL (≈ 1.62 µM)
- MIC [5, 21]: 3.1 µg/mL (≈ 3.13 µM)
- MIC [5, 22]: 1.6 µg/mL (≈ 1.62 µM)
- MIC [5, 23]: 1.6 µg/mL (≈ 1.62 µM)
- MIC [6]: 3.1 µg/mL (≈ 3.13 µM)
- MIC [7]: 1.6 µg/mL (≈ 1.62 µM)
- LD50 (acute LD50 in mice; im, intramuscular): 315 mg/kg
- LD50 (acute LD50 in mice; intravenous): 35 mg/kg
- MIC [8]: > 100 µg/mL
- MIC [9]: > 100 µg/mL
- MIC [10]: > 100 µg/mL
- MIC (P. vulgaris (Pv-3); [24]): > 50 µg/mL
- MIC (P. vulgaris (Pv-3); pH 7): 12.5 µg/mL (≈ 12.6 µM)
- MIC (P. vulgaris (Pv-3); [25]): 6.3 µg/mL (≈ 6.36 µM)
- MIC (P. vulgaris (Pv-3); [26]): 6.3 µg/mL (≈ 6.36 µM)
- MIC (P. vulgaris (Pv-3); [27]): 6.3 µg/mL (≈ 6.36 µM)
- MIC (P. vulgaris (Pv-3); [28]): 3.1 µg/mL (≈ 3.13 µM)
- MIC (P. vulgaris (Pv-3); [29]): 1.6 µg/mL (≈ 1.62 µM)
- MIC (P. vulgaris (Pv-3); [30]): 3.1 µg/mL (≈ 3.13 µM)
- MIC (P. vulgaris (Pv-3); [31]): 1.6 µg/mL (≈ 1.62 µM)
- MIC (P. vulgaris (Pv-3); [32]): 6.3 µg/mL (≈ 6.36 µM)
- MIC (S. aureus (Sa-63); [24]): > 50 µg/mL
- MIC (S. aureus (Sa-63); pH 7): 12.5 µg/mL (≈ 12.6 µM)
- MIC (S. aureus (Sa-63); [25]): 6.3 µg/mL (≈ 6.36 µM)
- MIC (S. aureus (Sa-63); [26]): 6.3 µg/mL (≈ 6.36 µM)
- MIC (S. aureus (Sa-63); [27]): 6.3 µg/mL (≈ 6.36 µM)
- MIC (S. aureus (Sa-63); [28]): 6.3 µg/mL (≈ 6.36 µM)
- MIC (S. aureus (Sa-63); [29]): 3.1 µg/mL (≈ 3.13 µM)
- MIC (S. aureus (Sa-63); [30]): 6.3 µg/mL (≈ 6.36 µM)
- MIC (S. aureus (Sa-63); [31]): 6.3 µg/mL (≈ 6.36 µM)
- MIC (S. aureus (Sa-63); [32]): 3.1 µg/mL (≈ 3.13 µM)
- activity against anaerobic organisms (anaerobic organisms): inactive
- MIC [11]: > 100 µg/mL
- protection against systemic lethal infections [12]: good protection
